Measurements published in patent US9783488B2 (CHDI Foundation, Inc., priority 2013, dated 2017).

What was measured:
[1] = test system: cellular histone deacetylase enzymatic activity in Jurkat E6-1 cells; experiment: Inhibition of cellular HDAC activity in Jurkat E6-1 cells, fluorogenic substrate Boc-Lys(Tfa)-AMC; format: cell-based; conditions: Homo sapiens, read-out: Cell IC50
From the text: Analysis of Inhibition of Cellular HDAC Activity with Class IIa Histone Deacetylase (HDAC) Inhibitors
The potency of Class IIa Histone Deacetylase (HDAC) inhibitors is quantified by measuring the cellular histone deacetylase enzymatic activity using the fluorogenic substrate, Boc-Lys(Tfa)-AMC. After penetration in Jurkat E6-1 cells, the substrate is deacetylated to Boc-Lys-AMC. After cell lysis and cleavage by trypsin, the fluorophore AMC is released from the deacetylated substrate only. The fluorescence of the sample is directly related to the histone deacetylase activity in the sample.
Jurkat E6.1 cell culture and plating. Jurkat E6.1 cells are cultured according to standard cell culture protocols in Jurkat E6.1 Growth Media (RPMI without phenol red, 10% FBS, 1 mM HEPES, and 1 mM Sodium Pyruvate). Jurkat E6.1 cells are counted using a Coulter Counter and resuspended in Jurkat E6.1 growth media at a concentration of 75,000 cells/35 μl. 35 μl or 75,000 cells is seeded into Greiner microtitre assay plates. The plates are then incubated at 37° C. and 5% CO2 while other assay components are being prepared.
Serially dilute HDAC inhibitor compounds. Serial dilutions of the HDAC inhibitors and control reference compound (1-(5-(3-((4-(1,3,4-oxadiazol-2-yl)phenoxy)methyl)-1,2,4-oxadiazol-5-yl)thiophen-2-yl)-2,2,2-trifluoroethanone) are made by first resuspending the lyophilized compound to a final concentration of 10 mM in […]. Stocks of 70 μl aliquots of the 10 mM compound in DMSO are prepared and stored at −20° C. From one stock aliquot of each compound to be tested and the reference compound, a 16-point serial dilution is prepared according to Table 1 using a 125 μl 16-channel Matrix multi-channel pipette.
2 μl (200×) of each diluted solution and each control (full activity: 100% DMSO alone or full inhibition 1 mM) is stamped into V-bottom polypropylene 384-well compound plates using either the Bravo, Janus, or 12.5 μl 16-channel Matrix multi-channel pipette. Each well with the 200× compound solution is diluted 1:20 by the addition of 38 μl Jurkat assay buffer+DMSO (9.5% DMSO, RPMI without phenol red, 0.09% FBS, 9 mM Hepes, and 0.9 mM Sodium Pyruvate equilibrated to r.t.)
Prepare 5× (500 μM) Boc-Lys(Tfa)-AMC substrate. 5× (500 μM) substrate is prepared just prior to the addition to the assay. The 5× substrate is prepared by diluting a 100 mM Boc-Lys(Tfa)-AMC in DMSO solution 1:200 by adding it drop-wise to Jurkat assay medium (RPMI without phenol red, 0.1% FBS, 10 mM Hepes, and 1 mM Sodium Pyruvate equilibrated to 37° C.) while vortexing at slow speed to prevent precipitation.
Prepare 3× Lysis Buffer. 10 mL of 3× lysis buffer is prepared with 8.8 mL of 3× stock lysis buffer (50 mM Tris-HCl, pH 8.0, 137 mM NaCl, 2.7 mM KCl, 1 mM MgCl2, 1% Nonidet P40 Substitute equilibrated to r.t.) and 1.2 mL of 3 mg/mL Trypsin equilibrated to r.t.
Assay. 5 μl of each solution of 1:20 diluted compound from above is transferred to the Greiner microtitre assay plates with 75,000 cells/well using the Bravo. Cells are then incubated for 2 hours at 37° C. and 5% CO2. The assay is then started by adding 10 μl of 5× (500 μM) substrate to the assay plate using either the Bravo or 16-channel Matrix multi-channel pipette. The cells are then incubated for 3 hours at 37° C. and 5% CO2. Next, 25 μl of 3× lysis buffer is added to each well using either the 125 μl 16 channel pipette or the Bravo. The assay plate is then incubated overnight (15-16 hours) at 37° C. and 5% CO2. The following day, the plates are shaken on an orbital shaker for 1 minute at 900 rpm. Finally the top read fluorescence (Excitation: 355 nm, Emission: 460 nm) is measured using PerkinElmer EnVision.

[2] = molecular target: human catalytic domain HDAC4 protein (amino acids 648-1032) (Homo sapiens (Human), UniProt P56524); experiment: Inhibition of HDAC4 catalytic domain enzymatic activity, fluorogenic substrate Boc-Lys(Tfa)-AMC; conditions: HDAC4 catalytic domain enzyme, read-out: Biochemical HDAC4 IC50
From the text: Analysis of Inhibition of HDAC4 with Class IIa Histone Deacetylase (HDAC) Inhibitors
The potency of Class IIa Histone Deacetylase (HDAC) inhibitors is quantified by measuring the Histone Deacetylase 4 (HDAC4) catalytic domain enzymatic activity using the fluorogenic substrate, Boc-Lys(Tfa)-AMC. The substrate is deacetylated to Boc-Lys-AMC by HDAC4. Cleavage by trypsin results in the release of the fluorophore AMC from the deacetylated substrate. The fluorescence of the sample is directly related to the histone deacetylase activity in the sample.
Serially dilute HDAC inhibitor compounds. […] Stocks of 6 μl aliquots of the 10 mM compound in DMSO are prepared and stored at […]. From one stock aliquot of each compound to be tested and the reference compound, a 16-point serial dilution is prepared according to Table 1 using a 125 μl 16-channel Matrix multi-channel pipette (Matrix Technologies Ltd).
2 μl (200×) of each diluted solution and each control (full activity: 100% DMSO alone or full inhibition 1 mM) is stamped into V-bottomed polypropylene 384-well compound plates using either the Bravo (384-well head from Agilent) or 12.5 μl 16-channel Matrix multi-channel pipette (Matrix Technologies Ltd).
Prepare HDAC4 catalytic domain enzyme (0.2 μg/mL).
Prepare 5× ([…]) Boc-Lys(Tfa)-AMC Substrate. 5× (50 μM) substrate is prepared just prior to the addition to the assay. A 1 mM substrate stock is made by diluting a 100 mM Boc-Lys(Tfa)-AMC in DMSO solution 1:100 by adding it drop-wise to assay buffer (equilibrated to r.t.) while vortexing at slow speed to prevent precipitation. The 5× substrate is prepared by diluting the 1 mM substrate solution 1:20 by adding it drop-wise to assay buffer (equilibrated to r.t.) while vortexing at slow speed to prevent precipitation.
Prepare 3× (30 μM) Developer/Stop Solution.
Assay. 5 μl of each solution of 1:20 diluted compound from above is transferred to a clear bottomed, black, 384-well assay plate using the Bravo or the Janus (384-well MDT head from Perkin Elmer). Using a 16-channel Matrix multi-channel pipette, 35 μl of the working solution of HDAC4 catalytic domain enzyme (0.2 μg/mL in assay buffer) is transferred to the assay plate. […] The assay plate is then shaken for two minutes on an orbital shaker at 900 rpm (rotations per minute). Next the plate is incubated for 15 minutes at 37° C. The reaction is stopped by adding 25 μl of 3× (3 μM) developer/stop solution to the assay plates using either the Bravo, Janus or a 16-channel Matrix multi-channel pipette. Assay plates are then shaken for 5 minutes on an orbital shaker at 1200 rpm. Next, the assay plates are incubated at 37° C. for 1 hour in a tissue culture incubator.

Sequence of human catalytic domain HDAC4 protein (amino acids 648-1032) (P56524 648-1032): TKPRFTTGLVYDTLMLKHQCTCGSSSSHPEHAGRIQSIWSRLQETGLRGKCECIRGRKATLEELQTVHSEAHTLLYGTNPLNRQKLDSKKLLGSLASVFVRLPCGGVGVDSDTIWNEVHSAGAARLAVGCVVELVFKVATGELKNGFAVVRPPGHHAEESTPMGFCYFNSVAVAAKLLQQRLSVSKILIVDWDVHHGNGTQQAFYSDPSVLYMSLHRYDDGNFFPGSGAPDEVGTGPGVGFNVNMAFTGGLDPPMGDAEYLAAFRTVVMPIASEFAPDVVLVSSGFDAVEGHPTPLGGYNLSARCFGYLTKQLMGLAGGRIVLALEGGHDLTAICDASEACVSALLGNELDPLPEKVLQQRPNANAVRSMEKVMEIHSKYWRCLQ

| Compound | IC50 [1] | IC50 [2] |
| --- | --- | --- |
| Cc1c(F)cccc1[C@]1(C(=O)NO)CC[C@H](c2ccc(F)cn2)C1 (relative stereo) [Example 11, (1S,3S*)-1-(3-fluoro-2-methylphenyl)-3-(5-fluoropyridin-2-yl)-N-hydroxycyclopentane carboxamide] | 1830 nM | 200 nM |
| Cc1c(F)cccc1[C@]1(C(=O)NO)CC[C@@H](c2ccc(F)cn2)C1 (relative stereo) [Example 12, (1S,3R*)-1-(3-fluoro-2-methylphenyl)-3-(5-fluoropyridin-2-yl)-N-hydroxycyclopentane carboxamide] | 2370 nM | 240 nM |
| COc1ncc([C@H]2CC[C@@](C(=O)NO)(c3cccc(F)c3C)C2)cc1F (relative stereo) [Example 44, (1S,3S*)-1-(3-fluoro-2-methylphenyl)-3-(5-fluoro-6-methoxypyridin-3-yl)-N-hydroxycyclopentanecarboxamide] | 1700 nM | 330 nM |
| COc1ncc([C@@H]2CC[C@@](C(=O)NO)(c3cccc(F)c3C)C2)cc1F (relative stereo) [Example 45, (1S,3R*)-1-(3-fluoro-2-methylphenyl)-3-(5-fluoro-6-methoxypyridin-3-yl)-N-hydroxycyclopentanecarboxamide] | 420 nM | 190 nM |
| Cc1c(F)cccc1[C@]1(C(=O)NO)CC[C@@H](c2cnn(C(F)F)c2)C1 (relative stereo) [Example 46, (1S,3R*)-3-(1-(Difluoromethyl)-1H-pyrazol-4-yl)-1-(3-fluoro-2-methylphenyl)-N-hydroxy cyclopentane carboxamide] | 540 nM | 95 nM |
| Cc1c(F)cccc1[C@]1(C(=O)NO)CC[C@@H](c2cnc(OCCN3CCCC3)c(F)c2)C1 (relative stereo) [Example 48, (1 S,3R*)-1-(3-Fluoro-2-methylphenyl)-3-(5-fluoro-6-(2-(pyrrolidin-1-yl)ethoxy)pyridin-3-yl)-N-hydroxycyclopentanecarboxamide] | 750 nM | 320 nM |
| Cc1c(F)cccc1[C@]1(C(=O)NO)CC[C@@H](c2ccnn2C)C1 (relative stereo) [Example 49, (1S,3R*)-1-(3-Fluoro-2-methylphenyl)-N-hydroxy-3-(1-methyl-1H-pyrazol-5-yl)cyclopentane carboxamide] | 400 nM | 170 nM |
| Cc1c(F)cccc1[C@]1(C(=O)NO)CC[C@H](c2ccnn2C)C1 (relative stereo) [Example 50, (1S,3S*)-1-(3-Fluoro-2-methylphenyl)-N-hydroxy-3-(1-methyl-1H-pyrazol-5-yl)cyclopentanecarboxamide] | 1800 nM | 250 nM |
| Cc1c(F)cccc1[C@]1(C(=O)NO)CC[C@@H](c2ccc3cnn(C(F)F)c3c2)C1 (relative stereo) [Example 54, (1S,3R*)-3-(1-(difluoromethyl)-1H-indazol-6-yl)-1-(3-fluoro-2-methylphenyl)-N-hydroxycyclopentanecarboxamide] | 110 nM | 72 nM |
| Cc1c(F)cccc1[C@]1(C(=O)NO)CC[C@H](c2ccc3cnn(C(F)F)c3c2)C1 (relative stereo) [Example 55, (1S,3S*)-3-(1-(difluoromethyl)-1H-indazol-6-yl)-1-(3-fluoro-2-methylphenyl)-N-hydroxycyclopentanecarboxamide] | 160 nM | 46 nM |
| Cc1c(F)cccc1[C@]1(C(=O)NO)CC[C@@H](c2ccc3cnn(C)c3c2)C1 (relative stereo) [Example 56, (1S,3R*)-1-(3-fluoro-2-methylphenyl)-N-hydroxy-3-(1-methyl-1H-indazol-6-yl)cyclopentanecarboxamide] | 230 nM | 140 nM |
| Cc1c(F)cccc1[C@]1(C(=O)NO)CC[C@@H](c2ccn3ccnc3c2)C1 (relative stereo) [Example 57, (1S,3R*)-1-(3-fluoro-2-methylphenyl)-N-hydroxy-3-(imidazo[1,2-a]pyridin-7-yl)cyclopentanecarboxamide] | 180 nM | 98 nM |
| Cc1c(F)cccc1[C@]1(C(=O)NO)CC[C@H](c2ccn3ccnc3c2)C1 (relative stereo) [Example 58, (1S,3S*)-1-(3-fluoro-2-methylphenyl)-N-hydroxy-3-(imidazo[1,2-a]pyridin-7-yl)cyclopentanecarboxamide] | 300 nM | 82 nM |
| Cc1c(F)cccc1[C@]1(C(=O)NO)CC[C@@H](c2cccc3cnn(C)c23)C1 (relative stereo) [Example 60, (1S,3R*)-1-(3-fluoro-2-methylphenyl)-N-hydroxy-3-(1-methyl-1H-indazol-7-yl)cyclopentanecarboxamide] | 810 nM | 360 nM |
| Cc1c(F)cccc1[C@]1(C(=O)NO)CC[C@@H](c2ccc3cn[nH]c3c2F)C1 (relative stereo) [Example 61, (1S,3R*)-3-(7-fluoro-1H-indazol-6-yl)-1-(3-fluoro-2-methylphenyl)-N-hydroxycyclopentanecarboxamide] | 81 nM | 73 nM |
| Cc1c(F)cccc1[C@]1(C(=O)NO)CC[C@@H](c2ccc3oc(C4CC4)nc3c2)C1 (relative stereo) [Example 62, (1S,3R*)-3-(2-cyclopropylbenzo[d]oxazol-5-yl)-1-(3-fluoro-2-methylphenyl)-N-hydroxycyclopentanecarboxamide] | 410 nM | 280 nM |
